The source of these data is patent publication US20210401809A1, “PHARMACEUTICAL COMPOUNDS” (Sareum Limited, priority 2016, published 2021).

What is called IC50 is the concentration needed to halve the response being measured.

In series [1] the target is T1, JAK1 (Homo sapiens, UniProt P23458).
T1 construct: 866-1154; GST (N); purchased Reaction Biology Corp. (contract assay); host or cells: Baculovirus in Sf21 insect cells
The series is described as follows: In vitro enzyme inhibition, 33P-ATP filter kinase assay (Reaction Biology). Type of series: biochemical. The procedure: (§1) Compounds of the invention were assayed for their ability to inhibit TYK2 kinase and other JAK kinases.
(§2) Substrates and kinases used in the assays are identified in Table 2 below.
(§3) JAK3tide=[Ac-[…]-NH2]

In series [2] the target is T2, JAK3 (Homo sapiens, UniProt P52333).
T2 construct: 781-1124; GST (N); purchased Reaction Biology Corp. (contract assay); host or cells: Baculovirus in Sf21 insect cells
Described as above. Type of series: biochemical. The protocol: as §1, §2, §3

Series [3] deals with T3, TYK2 kinase (Homo sapiens, UniProt P29597).
T3 construct: 833-1187; GST (N); purchased Reaction Biology Corp. (contract assay); host or cells: Baculovirus in Sf21 insect cells
The series is described as above. It counts as biochemical. The protocol: as §1, §2, §3

Series [4] concerns CCRF-CEM cells (TYK2-dependent T-ALL). The series is described as follows: Cell proliferation assay (ATPlite, 7 days). Type of series: cell-based. Conditions: Homo sapiens, 168 h. The protocol:
(§4) Jurkat, MOLT-4, CCRF-CEM and CCRF-HSB-2 cells are all TYK2-dependent T-ALL cells. Loucy cells are TYK2-independent T-ALL cell lines. Dexamethasone, Etoposide and Paclitaxel were used as positive controls. Compound effects were studied 7 days after compound addition […] Luminescent product was detected using a BMG FLUOstar plate reader. • The data were analysed using a 4-parameter logistic equation in GraphPad Prism.
A general note: In ATP-based viability assays light output follows the ATP content of the culture.

The subject of series [5] is CCRF-HSB-2 cells (TYK2-dependent T-ALL). The series is described as follows: Cell proliferation assay (ATPlite, 7 days). Type of series: cell-based. Conditions: Homo sapiens, CCRF-HSB-2, 168 h. The procedure: as §4
Series [6] deals with Jurkat cells (TYK2-dependent T-ALL). The series is described as follows: Cell proliferation assay (ATPlite, 7 days). Type of series: cell-based. Conditions: Homo sapiens, 168 h. The protocol:
as §4

Series [7] deals with Loucy cells (TYK2-independent T-ALL). The series is described as follows: Cell proliferation assay (ATPlite, 7 days). It counts as cell-based. Conditions: 168 h. The procedure: as §4
The subject of series [8] is MOLT-4 cells (TYK2-dependent T-ALL). The series is described as follows: Cell proliferation assay (ATPlite, 7 days). Type of series: cell-based. Conditions: Homo sapiens, MOLT-4, 168 h. The protocol: as §4
The test system of series [9] is PARP cleavage in MOLT-4 cells. The series is described as follows: Western blot assay, chronic compound treatment. Type of series: cell-based. Conditions: 48 hrs, tested 0.03-3 μM, FIG. 2. The protocol:
MOLT-4 cells were treated with Compounds 25 and 29 (of Example 1) and three benchmark inhibitors (GLPG0634 (Filgotinib, developed by Galapagos), TG101209 and GDC-046) as comparative examples at five concentrations (3, 1, 0.3, 0.1 and 0.03 μM), for 48 hrs.
Cell lysates were analysed by Western blot and probed with antibodies against PARP and Actin.
The details of the antibodies used are set out in the table below.
Protocol • Cell were plated in 6-well plates at 4e6 cells per well in 6 ml of media (RPMI+10% FBS) and incubated for at least 1 h at 37° C., 5% CO2. • Cells were treated with the indicated concentrations of compounds for 48 hrs. • Cells were harvested by centrifuging at 12,000 rpm for 1 min (4° C.), washed in ice cold PBS and centrifuged again at 12,000 rpm for 1 min (4° C.). • The supernatant was removed and the cell pellet snap frozen on dry ice. • Cells were lysed in RIPA buffer (with protease and phosphatase inhibitors) and incubated on ice for 30 min. • Cellular debris was pelleted at 13,000 rpm for 5 min at 4° C., supernatant was transferred to a fresh tube. • Protein concentration was estimated using a BCA assay. • 30 μg of protein was loaded onto 4-12% NuPAGE Novex Bis-Tris protein gels (MOPs buffer). • Protein was transferred to a PVDF membrane using dry transfer (iBlot) and western blotting performed against the antigens of interest.

Series [10] can be described thus: PKPD study: plasma and tumour concentrations. It counts as in vivo, male SCID mice. As to conditions: MOLT-4 tumour-bearing mice. The procedure: (§5) Male SCID mice were implanted with MOLT-4 tumour cells (1×10^7 in 50% matrigel). When tumours reached approximately 150 mm^3 animals received a single dose of test compound. Animals to be sampled at 24 hrs also received a second dose at 12 hrs.
(§6) At 1, 6 and 24 h animals were sacrificed and plasma prepared. Tumour tissue was removed and divided into 2 sections—one for bioanalysis and the second for homogenisation for western blotting.

The test system of series [11] is pSTAT1, pTYK2, cleaved PARP in MOLT-4 tumours. The series is described as follows: PKPD study: Western blot of tumour tissue. As to conditions: FIG. 6. It counts as in vivo, male SCID mice. The protocol:
as §5, §6
Tumour tissue was homogenised in lysis buffer supplemented with protease and phosphatase inhibitors. Protein in individual samples was quantified using a commercially available BCA kit.
50 μg total protein was run on a 4-20% pre-cast gel and transferred to PVDF membrane before being incubated with the following antibodies: • pSTAT1 • STAT1 • pTYK2 • TYK2 • Cleaved PARP • B-actin • Anti-rabbit IgG
On the technique in general: Immunoblotting shows a protein as a band on a membrane.

Series [12] deals with MOLT-4 tumours. The series is described as follows: Efficacy study in mice bearing MOLT-4 tumours (Example 7). It counts as in vivo, male SCID mice. Conditions: 21 days; for effect on MOLT-4 tumour growth: FIG. 7. An excerpt:
MOLT-4 cells (1×10^7 in matrigel) were implanted onto the rear dorsum of male SCID mice using a 25-gauge needle. When tumours reached approximately 100 mm^3 the mice were randomly assigned to the following treatment groups.

The subject of series [13] is CCRF-HSB-2 tumours. The series is described as follows: Tumour growth delay study in mice bearing CCRF-HSB-2 tumours (Example 8). Conditions: for T/C (test versus control) at the end of the study period: 18 days. Type of series: in vivo, male SCID mice. The protocol: (§7) Dosing solutions were prepared on the day of study.
Series [14] concerns MOLT-4 xenografts. The series is described as follows: Tumour growth delay study in mice bearing MOLT-4 xenografts (Example 9). Type of series: in vivo, male SCID mice. The procedure:
(§8) A total of 50 male SCID mice aged 5-7 weeks were used for the study. These were bred in-house at Axis Bioservices. Animals were housed in IVC cages (up to 5 per cage) with individual mice identified by tail mark. All animals were allowed free access to a standard certified commercial diet and sanitised water during the study. The holding room was maintained under standard conditions: 20-24° C., 40-70% humidity and a 12 h light/dark cycle.
(§9) MOLT-4 cells (1×10^7 in matrigel) were implanted onto the rear dorsum of male SCID mice using a 25-gauge needle. When tumours reached approximately 100-150 mm^3 the mice were randomly assigned to the following treatment groups.
as §7
(§10) The formulation for cyclophosphamide was PBS at a dosing volume of 10 ml/kg based on animal weight on day of dosing.
(§11) For combination dosing, both compounds were dosed at the same time.

Series [15] in a line: Animal bodyweight in MOLT-4 xenograft study (Example 9). Type of series: in vivo, male SCID mice. As to conditions: 25 and 50 mg/kg BID PO, 21 days. The procedure: as §8, §9, §7, §10, §11
For series [16] the following is noted: 150 mg/kg Q5D IP.
Method: A total of 40 male SCID mice aged 5-7 weeks were used for the study. These were purchased from Charles River and allowed to acclimatize for 7 days prior to tumour implantation. Animals were housed in IVC cages (up to 5 per cage) with individual mice identified by tail mark. All animals were allowed free access to a standard certified commercial diet and sanitised water during the study. The holding room was maintained under standard conditions: 20-24° C., 40-70% humidity and a 12 h light/dark cycle.
CCRF-HSB-2 cells (5×10^6 in matrigel) were implanted onto the rear dorsum of male SCID mice using a 25-gauge needle. When tumours reached a size of approximately 100-150 mm^3 the mice were randomly assigned to the following treatment groups.
Dosing solutions were prepared on the day of study. Formulation was 0.5% methylcellulose/0.025% Tween-20 at dosing volume of 10 ml/kg based on animal weight on day of dosing. Animals were dosed orally twice daily (12 hours apart) for 18 consecutive days.
Series [17] has as its system TYK2 dependent cell lines (T-ALL cells). Conditions: Sanda et al.; read-out: IC50 for inhibiting growth of TYK2 dependent cell lines; cited from earlier work.
Series [18] concerns TYK2-independent cell line (LOUCY). As to conditions: Sanda et al.; cited from earlier work.

T3 sequence (P29597 833-1187): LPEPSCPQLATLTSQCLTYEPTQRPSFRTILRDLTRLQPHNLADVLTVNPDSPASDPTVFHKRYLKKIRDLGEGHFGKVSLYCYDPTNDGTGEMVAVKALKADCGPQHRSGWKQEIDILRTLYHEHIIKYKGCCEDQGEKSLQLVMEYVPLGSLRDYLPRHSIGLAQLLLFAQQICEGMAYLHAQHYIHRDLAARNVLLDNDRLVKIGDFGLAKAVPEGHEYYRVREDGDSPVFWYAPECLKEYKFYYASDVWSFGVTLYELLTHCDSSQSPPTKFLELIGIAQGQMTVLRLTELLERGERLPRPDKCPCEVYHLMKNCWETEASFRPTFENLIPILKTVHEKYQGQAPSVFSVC
T1 sequence (P23458 866-1154): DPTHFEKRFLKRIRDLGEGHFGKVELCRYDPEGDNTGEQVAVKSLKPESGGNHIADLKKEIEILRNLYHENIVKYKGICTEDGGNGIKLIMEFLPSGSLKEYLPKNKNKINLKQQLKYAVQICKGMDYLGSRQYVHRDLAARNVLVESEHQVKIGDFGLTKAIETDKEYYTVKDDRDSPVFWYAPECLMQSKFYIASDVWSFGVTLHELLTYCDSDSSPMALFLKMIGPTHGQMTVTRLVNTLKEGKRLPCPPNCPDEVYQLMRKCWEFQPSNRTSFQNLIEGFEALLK
T2 sequence (P52333 781-1124): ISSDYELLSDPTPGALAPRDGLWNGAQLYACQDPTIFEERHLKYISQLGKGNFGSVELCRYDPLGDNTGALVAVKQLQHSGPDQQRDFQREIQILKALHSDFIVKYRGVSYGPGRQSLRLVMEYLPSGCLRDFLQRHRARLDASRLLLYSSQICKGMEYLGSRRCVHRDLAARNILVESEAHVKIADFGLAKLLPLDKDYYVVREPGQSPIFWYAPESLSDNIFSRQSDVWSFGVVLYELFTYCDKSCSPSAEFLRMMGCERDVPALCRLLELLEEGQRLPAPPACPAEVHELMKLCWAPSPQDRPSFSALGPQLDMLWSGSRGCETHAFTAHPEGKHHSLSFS

In the case of `NC(=O)c1nc(-c2c(F)cccc2Cl)oc1Nc1ccc(C(=O)N2CCOCC2)cc1` [Compound 25, 2-(2-chloro-6-fluoro-phenyl)-5-[4-(morpholine-4-carbonyl)-phenylamino]-oxazole-4-carboxylic acid amide], the IC50 in series [1] worked out at 28.9 nM; in series [2] it was 43.2 nM; in series [3] it was 0.564 nM; in series [4] it was 0.38 µM; in series [5], 0.43 µM; in series [6] it was 0.15 µM. The IC50 stood at 0.35 µM in [7] and 0.27 µM in series [8]. In addition, the “concentrations at which cleaved PARP is present (apoptosis)” value in series [9] was ≥ 1 µM. In addition, in series [10] (plasma, single dose, FIG. 4), the “maximal concentration in plasma” value is > 4000 ng/mL. In addition, in series [10] (plasma, single dose, FIG. 4), the “time of maximal exposure in plasma after dosing” value is listed as “one”. Moreover, in [10] (tumour tissue, FIG. 5), the “maximal concentration in tumour tissue” value was > 3000 ng per gram of tumour tissue. The “time of maximal exposure in tumour tissue after dosing” value in series [10] (tumour tissue, FIG. 5) was “six”. The “level of phosphorylated STAT1 in tumour” value in series [11] (MOLT-4 tumour tissue at 1, 6, 24 h vs vehicle) was “reduction in level of phosphorylated STAT1 at t=1 h, returning to normal in comparison with vehicle treated controls between 6 and 24 h”. Also, the “cleaved Parp in tumour” value in series [11] (MOLT-4 tumour tissue, relative to vehicle treated controls) was “An increase in cleaved Parp, relative to vehicle treated controls, was observed between 1 and 24 h”. In addition, the “Phosphorylated TYK2 levels in tumour” value in series [11] (MOLT-4 tumour tissue, second dose at 12 hrs) is “increased at 24 h following the initial dose”. Besides, the “T/C (test versus control), tumour volume, end of study” value in [12] (25 mg/kg BID per os) came out at 63.5%; in [12] (50 mg/kg BID per os), 27.0%. Besides, the results for the “T/C (test versus control), tumour weight, end of study” value in [12] (25 mg/kg BID per os) and in series [12] (50 mg/kg BID per os) were 60.7% and 24.0%, respectively. The results for the “effect on MOLT-4 tumour growth” value in [12] (25 mg/kg BID per os) and in [12] (50 mg/kg BID per os) were “slowing growth but not resulting in tumour regression” and “tumour regression”, respectively.

On to `NC(=O)c1nc(-c2c(Cl)cccc2Cl)oc1Nc1ccc(C(=O)N2CCOCC2)cc1` [Compound 29, 2-(2,6-dichloro-phenyl)-5-[4-(morpholine-4-carbonyl)-phenylamino]-oxazole-4-carboxylic acid amide], for which the IC50 in [1] stood at 16.8 nM; in series [2] it was 90.8 nM; in series [3], 0.617 nM; in series [4], 1.8 µM; in series [5], 1.4 µM; in [6], 0.6 µM. The IC50 was 1.7 µM in series [7] and 1.2 µM in series [8]. In addition, the “concentrations at which cleaved PARP is present (apoptosis)” value in series [9] was ≥ 3 µM. In addition, the “T/C (test versus control) at the end of the study period” value (from here on “T/C (test versus control) at the end”) in series [13] (25 mg/kg BID PO) stood at 18.1%; in series [13] (50 mg/kg BID PO), 10.8%; in series [14] (25 mg/kg BID PO, 21 days), 26.8%; in series [14] (50 mg/kg BID PO, 21 days), 16.6%. In addition, the “control of CCRF-HSB-2 tumour growth” value in series [13] (25 and 50 mg/kg BID PO, similar inhibition at both doses (p=0.6397), FIG. 8) was “good efficacy in controlling CCRF-HSB-2 tumour growth”. The “tumour weight at Day 18 versus vehicle only” value in series [13] (25 and 50 mg/kg BID, p<0.0001, FIG. 9) is recorded as “significantly smaller”. Further, the “bodyweight during the study” value in [15] is given as “maintained at pre-treatment levels”.

Regarding `O=P1(N(CCCl)CCCl)NCCCO1` (stereo not drawn) [cyclophosphamide, reference compound], in [12] (150 mg/kg Q5D), the “T/C (test versus control), tumour volume, end of study” value is 51.7% and the “T/C (test versus control), tumour weight, end of study” value was 49.0%. Besides, in series [13] (150 mg/kg Q5D IP), the “T/C (test versus control) at the end” value was determined as 5.9%. Besides, in [14] (150 mg/kg Q5D IP), the “T/C (test versus control) at the end” value is 26.2%. For the same molecule, the animal bodyweight result in [16] is listed as “lost weight this was not significant”.

Regarding JAK Inhibitor I, in series [17], the half-inhibitory concentration (IC50) was 1 to 3 µM. The “sensitivity of TYK2-independent cell line (LOUCY)” value in series [18] is recorded as “insensitive”.
